pIC50: −log10 of the molar value. Like-named read-outs stand apart in the source and are kept apart here.
What was measured:
[1] = target: human orexin-2 receptor (Homo sapiens (Human), UniProt O43614); experiment: Intracellular calcium measurement (FLIPR), CHO cells expressing human orexin-2 receptor, 3 nM orexin-A; assay type: cell-based; conditions: CHO cells expressing human orexin-2 receptor, FLIPR, 3 nM orexin-A; geometric mean if determined several times; read-out: IC50 OX2
In short: (§1)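 Fluo-4 AM-loaded CHO cells; antagonist preincubation 120 min, then 3 nM orexin-A (final) in HBSS/0.1% BSA/20 mM HEPES. FLIPR read at 1 s intervals; peak height vs. agonist-plus-vehicle control → IC50.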

[2] = target: orexin-1 (Homo sapiens (Human), UniProt O43613); experiment: Intracellular calcium measurement (FLIPR), CHO cells expressing human orexin-1 receptor, 3 nM orexin-A; assay type: cell-based; conditions: read-out: IC50 OX1
In short: as §1

[3] = CHO cells expressing human orexin-1 receptor, FLIPR, 3 nM orexin-A, geometric mean if determined several times

orexin-1, sequence (O43613 whole entry): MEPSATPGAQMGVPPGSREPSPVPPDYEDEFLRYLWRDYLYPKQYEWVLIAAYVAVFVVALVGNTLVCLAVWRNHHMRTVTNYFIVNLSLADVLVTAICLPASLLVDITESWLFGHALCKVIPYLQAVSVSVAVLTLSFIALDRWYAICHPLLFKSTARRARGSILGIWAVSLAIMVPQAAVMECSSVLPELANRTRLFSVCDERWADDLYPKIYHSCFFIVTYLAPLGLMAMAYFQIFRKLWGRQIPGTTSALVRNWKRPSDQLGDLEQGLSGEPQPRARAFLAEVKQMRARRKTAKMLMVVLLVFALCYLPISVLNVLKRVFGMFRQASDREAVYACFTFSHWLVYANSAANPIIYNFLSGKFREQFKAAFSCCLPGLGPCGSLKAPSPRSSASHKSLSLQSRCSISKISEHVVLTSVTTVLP
human orexin-2 receptor, sequence (O43614 whole entry): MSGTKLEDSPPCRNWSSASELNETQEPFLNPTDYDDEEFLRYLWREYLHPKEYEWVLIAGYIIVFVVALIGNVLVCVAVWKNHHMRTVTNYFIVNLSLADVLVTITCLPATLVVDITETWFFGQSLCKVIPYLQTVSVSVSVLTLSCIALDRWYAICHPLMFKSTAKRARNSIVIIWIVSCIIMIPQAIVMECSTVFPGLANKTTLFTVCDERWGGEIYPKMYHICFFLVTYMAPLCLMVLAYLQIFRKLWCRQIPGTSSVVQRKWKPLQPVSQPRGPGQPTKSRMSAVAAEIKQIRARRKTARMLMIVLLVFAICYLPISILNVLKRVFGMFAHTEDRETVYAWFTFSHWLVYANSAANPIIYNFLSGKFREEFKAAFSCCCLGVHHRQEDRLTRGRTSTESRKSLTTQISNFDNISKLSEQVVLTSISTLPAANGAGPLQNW

Row | pIC50 [1] | pIC50 [2, 3] | Compound | pIC50 [2]
1 | 6.85 | 6.90 | COc1cc(C(=O)N2CCC[C@H]2c2nc(-c3ccccc3OC(F)(F)F)no2)c(-n2nccn2)cc1OC [compound 177, (4,5-Dimethoxy-2-[1,2,3]triazol-2-yl-phenyl)-{(S)-2-[3-(2-trifluoromethoxy-phenyl)-[1,2,4]oxadiazol-5-yl]-pyrrolidin-1-yl}-methanone] | –
2 | 7.30 | 7.24 | CCOc1ncccc1-c1nnc([C@@H]2CCCN2C(=O)c2cc(C)ccc2-n2nccn2)[nH]1 [compound 496, {(S)-2-[5-(2-Ethoxy-pyridin-3-yl)-4H-[1,2,4]triazol-3-yl]-pyrrolidin-1-yl}-(5-methyl-2-[1,2,3]triazol-2-yl-phenyl)-methanone] | –
3 | 6.53 | 6.41 | Cc1ccc(-n2nccn2)c(C(=O)N2CCC[C@H]2c2nc(-c3cccc(F)c3)no2)c1 [compound 14, {(S)-2-[3-(3-Fluoro-phenyl)-[1,2,4]oxadiazol-5-yl]-pyrrolidin-1-yl}-(5-methyl-2-[1,2,3]triazol-2-yl-phenyl)-methanone] | –
4 | 7.96 | 7.15 | COc1c(F)cccc1-c1noc([C@@H]2CCCN2C(=O)c2ccc(C)cc2-n2nccn2)n1 [compound 195, {(S)-2-[3-(3-Fluoro-2-methoxy-phenyl)-[1,2,4]oxadiazol-5-yl]-pyrrolidin-1-yl}-(4-methyl-2-[1,2,3]triazol-2-yl-phenyl)-methanone] | –
5 | 8.00 | 7.57 | O=C(c1cccc(F)c1-c1ccn[nH]1)N1CCC[C@H]1c1nc(-c2ccccc2OC(F)(F)F)no1 [compound 168, [3-Fluoro-2-(2H-pyrazol-3-yl)-phenyl]-{(S)-2-[3-(2-trifluoromethoxy-phenyl)-[1,2,4]oxadiazol-5-yl]-pyrrolidin-1-yl}-methanone] | –
6 | 8.00 | 6.39 | COc1cc(C(=O)N2CCC[C@H]2c2nc(-c3cccc(F)c3OC)no2)c(-n2nccn2)cc1F [compound 206, {(S)-2-[3-(3-Fluoro-2-methoxy-phenyl)-[1,2,4]oxadiazol-5-yl]-pyrrolidin-1-yl}-(4-fluoro-5-methoxy-2-[1,2,3]triazol-2-yl-phenyl)-methanone] | –
7 | 7.52 | 6.38 | COc1ncccc1-c1cc([C@@H]2CCCN2C(=O)c2cc(C)ccc2-n2nccn2)on1 [compound 426, {(S)-2-[3-(2-Methoxy-pyridin-3-yl)-isoxazol-5-yl]-pyrrolidin-1-yl}-(5-methyl-2-[1,2,3]triazol-2-yl-phenyl)-methanone] | –
8 | 8.30 | 7.55 | CCOc1ccccc1-c1cnc([C@@H]2CCCN2C(=O)c2cc(C)ccc2-n2nccn2)[nH]1 [compound 526, {(S)-2-[5-(2-Ethoxy-phenyl)-1H-imidazol-2-yl]-pyrrolidin-1-yl}-(5-methyl-2-[1,2,3]triazol-2-yl-phenyl)-methanone] | –
9 | 7.42 | 6.31 | Cc1c(F)cccc1-c1noc([C@@H]2CCCN2C(=O)c2cc(F)ccc2-n2nccn2)n1 [compound 250, {(S)-2-[3-(3-Fluoro-2-methyl-phenyl)-[1,2,4]oxadiazol-5-yl]-pyrrolidin-1-yl}-(5-fluoro-2-[1,2,3]triazol-2-yl-phenyl)-methanone] | –
10 | 8.70 | 7.44 | CCOc1ccccc1-c1nc([C@@H]2CCCN2C(=O)c2cc(C)ccc2-n2nccn2)no1 [compound 306, {(S)-2-[5-(2-Ethoxy-phenyl)-[1,2,4]oxadiazol-3-yl]-pyrrolidin-1-yl}-(5-methyl-2-[1,2,3]triazol-2-yl-phenyl)-methanone] | –
11 | 7.20 | 6.41 | CCOc1ccccc1-c1noc([C@@H]2CCCN2C(=O)c2ccccc2-n2nccn2)n1 [compound 260, {(S)-2-[3-(2-Ethoxy-phenyl)-[1,2,4]oxadiazol-5-yl]-pyrrolidin-1-yl}-(2-[1,2,3]triazol-2-yl-phenyl)-methanone] | –
12 | 8.70 | 8.22 | Cc1ccc(C(=O)N2CCC[C@H]2c2ncc(-c3ccccc3OC(F)(F)F)[nH]2)c(-n2nccn2)c1 [compound 517, (4-Methyl-2-[1,2,3]triazol-2-yl-phenyl)-{(S)-2-[5-(2-trifluoromethoxy-phenyl)-1H-imidazol-2-yl]-pyrrolidin-1-yl}-methanone] | –
13 | 6.60 | 6.83 | COc1c(F)cccc1-c1noc([C@@H]2CCCN2C(=O)c2ccc(C)c(C)c2-n2nccn2)n1 [compound 272, (3,4-Dimethyl-2-[1,2,3]triazol-2-yl-phenyl)-{(S)-2-[3-(3-fluoro-2-methoxy-phenyl)-[1,2,4]oxadiazol-5-yl]-pyrrolidin-1-yl}-methanone] | –
14 | 6.44 | 5.83 | Cc1cccc(-c2nnc([C@@H]3CCCN3C(=O)c3cc(C)ccc3-n3nccn3)o2)c1 [Example 438, (5-Methyl-2-[1,2,3]triazol-2-yl-phenyl)-[(S)-2-(5-m-tolyl-[1,3,4]oxadiazol-2-yl)-pyrrolidin-1-yl]-methanone] | –
15 | 6.90 | 6.74 | Cc1ccc(C(=O)N2CCC[C@H]2c2nc(-c3ccccc3C(F)(F)F)no2)c(-n2nccn2)c1 [compound 180, (4-Methyl-2-[1,2,3]triazol-2-yl-phenyl)-{(S)-2-[3-(2-trifluoromethyl-phenyl)-[1,2,4]oxadiazol-5-yl]-pyrrolidin-1-yl}-methanone] | –
16 | 6.84 | 6.54 | Cc1ccc(-n2nccn2)c(C(=O)N2CCC[C@H]2c2cc(-c3ccccc3OC(F)(F)F)n[nH]2)c1 [compound 532, (5-Methyl-2-[1,2,3]triazol-2-yl-phenyl)-{(S)-2-[5-(2-trifluoromethoxy-phenyl)-2H-pyrazol-3-yl]-pyrrolidin-1-yl}-methanone] | –
17 | 9.00 | 8.70 | CCOc1ccccc1-c1cnc([C@@H]2CCCN2C(=O)c2ccc(C)cc2-n2nccn2)[nH]1 [compound 518, {(S)-2-[5-(2-Ethoxy-phenyl)-1H-imidazol-2-yl]-pyrrolidin-1-yl}-(4-methyl-2-[1,2,3]triazol-2-yl-phenyl)-methanone] | –
18 | 8.40 | 7.57 | Cc1ccc(C(=O)N2CCC[C@H]2c2nnc(-c3ccccc3OC(F)(F)F)[nH]2)c(-n2nccn2)c1 [compound 501, (4-Methyl-2-[1,2,3]triazol-2-yl-phenyl)-{(S)-2-[5-(2-trifluoromethoxy-phenyl)-4H-[1,2,4]triazol-3-yl]-pyrrolidin-1-yl}-methanone] | –
19 | 8.52 | 8.22 | CCOc1ncccc1-c1noc([C@@H]2CCCN2C(=O)c2cc(C)c(C)cc2-n2nccn2)n1 [compound 212, (4,5-Dimethyl-2-[1,2,3]triazol-2-yl-phenyl)-{(S)-2-[3-(2-ethoxy-pyridin-3-yl)-[1,2,4]oxadiazol-5-yl]-pyrrolidin-1-yl}-methanone] | –
20 | 6.68 | 6.60 | CCc1ccccc1-c1nnc([C@@H]2CCCN2C(=O)c2cc(C)ccc2-n2nccn2)o1 [Example 452, {(S)-2-[5-(2-Ethyl-phenyl)-[1,3,4]oxadiazol-2-yl]-pyrrolidin-1-yl}-(5-methyl-2-[1,2,3]triazol-2-yl-phenyl)-methanone] | –
21 | 7.43 | 7.09 | CCOc1ncccc1-c1noc([C@@H]2CCCN2C(=O)c2ccc(C)cc2-n2nccn2)n1 [compound 211, {(S)-2-[3-(2-Ethoxy-pyridin-3-yl)-[1,2,4]oxadiazol-5-yl]-pyrrolidin-1-yl}-(4-methyl-2-[1,2,3]triazol-2-yl-phenyl)-methanone] | –
22 | 7.42 | 7.41 | CCOc1ccccc1-c1nnc([C@@H]2CCCN2C(=O)c2cc(C)ccc2-n2nccn2)[nH]1 [compound 495, {(S)-2-[5-(2-Ethoxy-phenyl)-4H-[1,2,4]triazol-3-yl]-pyrrolidin-1-yl}-(5-methyl-2-[1,2,3]triazol-2-yl-phenyl)-methanone] | –
23 | 7.29 | 6.44 | Cc1ccc(-n2nccn2)c(C(=O)N2CCC[C@H]2c2cc(-c3ccccc3)on2)c1 [compound 430, (5-Methyl-2-[1,2,3]triazol-2-yl-phenyl)-[(S)-2-(5-phenyl-isoxazol-3-yl)-pyrrolidin-1-yl]-methanone] | –
24 | 5.67 | 5.98 | Cc1ccc(-n2nccn2)c(C(=O)N2CCC[C@H]2c2noc(-c3cc(C(F)(F)F)ccn3)n2)c1 [compound 315, (5-Methyl-2-[1,2,3]triazol-2-yl-phenyl)-{(S)-2-[5-(4-trifluoromethyl-pyridin-2-yl)-[1,2,4]oxadiazol-3-yl]-pyrrolidin-1-yl}-methanone] | –

Row | Compound | pIC50 [1] | pIC50 [2, 3] | pIC50 [2]
25 | COc1cc(C(=O)N2CCC[C@H]2c2noc(-c3cccc(C)c3C)n2)c(-n2nccn2)cc1Cl [compound 406] | 8.70 | 7.66 | –
26 | Cc1cc(C(=O)N2CCC[C@@]2(C)c2nnc(-c3cccc(Cl)c3C)[nH]2)c(-n2nccn2)cc1C [compound 553] | 8.22 | 7.85 | –
27 | Cc1cc(-n2nccn2)c(C(=O)N2CCC[C@H]2c2noc(-c3cccc(Cl)c3C)n2)cc1Cl [compound 371] | 8.15 | – | 7.74
28 | CCc1ccccc1-c1nc([C@@H]2CCCN2C(=O)c2ccc(Cl)cc2-n2nccn2)no1 [compound 398] | 7.74 | – | 7.48
29 | COc1ccc(-n2nccn2)c(C(=O)N2CCC[C@H]2c2nc(-c3cccc(Cl)c3C)no2)c1F [compound 265] | 7.12 | 6.95 | –
30 | Cc1ccc(-n2nccn2)c(C(=O)N2CCC[C@H]2c2nc(-c3cccnc3Cl)no2)c1 [compound 28] | 7.48 | – | 5.58
31 | COc1ccc(C)cc1-c1nc([C@@H]2CCCN2C(=O)c2cc(Cl)ccc2-n2nccn2)no1 [compound 417] | 7.68 | 6.57 | –
32 | COc1c(F)cccc1-c1nc([C@@H]2CCCN2C(=O)c2cc(Cl)ccc2-n2nccn2)no1 [compound 343] | 8.52 | 7.34 | –
33 | Cc1ccc(-n2nccn2)c(C(=O)N2CCC[C@H]2c2nc(-c3c(C)cccc3Cl)no2)c1 [compound 24] | 6.98 | 6.33 | –
